{
  "source": "patent US20050271736A1",
  "about": "“Pyrithione compound and microcapsule using the same” (Fuji Photo Film Co., Ltd., priority 2004, published 2005)",
  "test": "Measurement of photo-decomposability of the compound in ethyl acetate solution (absorbance before/after UV exposure)",
  "format": "physicochemical",
  "conditions": "5.0×10^−5 mol/L in ethyl acetate",
  "experimental": "The absorbance thereof was measured with an absorption photometer (Multichannel Detector PMA 11, trade name, manufactured by Hamamatsu Photonics K.K.). […] After this solution was exposed for 20 seconds by means of a fluorescent lamp of 23 watts having the central wavelength of light emission at 365 nm, which was placed at a distance of 45 mm, the absorbance thereof was measured in the same manner as the above.",
  "data": [
    {"smiles": "OCCCCCCOc1cccn(OCCCCCCO)c1=S", "note": "[I-1]", "values": [
      {"measurement": "absorbance at 370 nm before exposure", "setting": "1-cm quartz cell, before exposure", "result": 0.64},
      {"measurement": "absorbance at 370 nm after exposure", "setting": "exposed 20 seconds, 23 W fluorescent lamp, central wavelength 365 nm, distance 45 mm", "result": 0.15}
    ]}
  ]
}
